Data from US20200338056A1, “INDUCTION OF SENESCENCE USING PROTON PUMP INHIBITORS” (THE METHODIST HOSPITAL SYSTEM, priority 2016, published 2020).
Entries after “also recorded” stand apart in the source; their conditions may differ.

Experiments:
lysosomal cathepsin B = experiment: Magic Red Cathepsin B assay in live ECs; format: cell-based, human; details: ECs treated chronically, 5 and 10 μmol/L, P4-6, vs vehicle
Experimental: (§1) Cell culture. Human microvascular endothelial cells (ECs) purchased from Lonza (cat # CC-2543, Basel, Switzerland) were cultured continuously for three passages from passage (P) 4 to P6 in the presence of clinically relevant doses of esomeprazole or vehicle (DMSO) (Shin J M, Kim N. Pharmacokinetics and pharmacodynamics of the proton pump inhibitors. Journal of neurogastroenterology and motility. 2013; 19:25-35). All in vitro experiments were performed at P6 upon confluency. […]
(§2) Lysosomal studies. Cellular pH, lysosomal cathepsin B and protein aggregation were measured in live ECs using pHrodo™ Green/Red dextran, 10,000 MW dye (cat: P35368/P35372, MOLECULAR PROBES®, Life Technologies, Carlsbad, Calif.), Magic Red™ Cathepsin B Assay Kit (cat: 938, ImmunoChemistry Technologies LLC, Bloomington, Minn.) and PROTEOSTAT® Protein aggregation assay (cat: ENZ-51023-KP002, Enzo Life Sciences, Inc., Farmingdale, N.Y.). The pHrodo™ Green dextran when endocytosed permits visualization of endosomal pH, with an inverse non-linear relationship of fluorescence intensity to pH. […] Fluorescence images were taken using Olympus IX51 Inverted fluorescence microscope at 10× magnification and 40× for protein aggregation. All images were quantified using NIH ImageJ 1.47v software. […] Absorbance was measured using Tecan Infinite® M1000 PRO multimode reader at 405 nm (Tecan, Mannedorf, Switzerland).

[1] = tested on: Human microvascular endothelial cells (ECs); experiment: Nitric oxide by DAF-2DA live cell imaging; format: cell-based; details: ECs treated chronically, vs vehicle
Experimental: as §1
(§3) Measurement of superoxide and nitric oxide. Superoxide and nitric oxide were measured in ECs using live cell imaging dyes; DHE (Molecular Probes® cat # D-1168, Eugene, Oreg.) for superoxide and DAF-2DA (Sigma cat #50277, St. Louis, Mo.) for nitric oxide measurement according to the published protocol (Yepuri G, et al., Positive crosstalk between arginase-ii and s6k1 in vascular endothelial inflammation and aging. Aging cell. 2012; 11:1005-1016). Several images per well were captured using Olympus IX51 Inverted fluorescence microscope. Relative fluorescence intensities of images were quantified using NIH ImageJ software. The total NO concentration (NOx) was determined using the Griess colorimetric assay as previously described (Ghebremariam Y T, et al., Fxr agonist int-747 upregulates ddah expression and enhances insulin sensitivity in high-salt fed dahl rats. PloS one. 2013; 8:e60653).

PAI-1 = experiment: Western blot for PAI-1 protein expression; format: cell-based, human; details: vs vehicle
Experimental: (§4) Cell culture. Human microvascular endothelial cells (ECs) purchased from Lonza (cat # CC-2543, Basel, Switzerland) were cultured continuously for three passages from passage (P) 4 to P6 in the presence of clinically relevant doses of esomeprazole or vehicle (DMSO) (Shin J M, Kim N. Pharmacokinetics and pharmacodynamics of the proton pump inhibitors. Journal of neurogastroenterology and motility. 2013; 19:25-35). All in vitro experiments were performed at P6 upon confluency. ECs were cultured and maintained in EBM-2 Basal Medium (cat # CC-3156, Lonza, Basel, Switzerland) supplemented with EGM-2 MV SingleQuots™ Kit—growth factors, cytokines, and antibiotics (cat # CC-4147, Lonza, Basel, Switzerland).
Western blot analysis. Preparation of cell lysate, SDS-PAGE, transfer of proteins onto membrane and western blotting was performed as described previously (Rajapakse A G, et al., Hyperactive s6k1 mediates oxidative stress and endothelial dysfunction in aging: Inhibition by resveratrol. PloS one. 2011; 6:e19237.6). To detect PAI-1 protein expression anti-PAI-1 rabbit monoclonal antibody (Cell Signaling Technology, Inc. cat #11907S, Danvers, Mass.) was used and anti-α-Tubulin mouse monoclonal antibody (Sigma cat # T5168, St. Louis, Mo.) was used to normalize expression.

[2] = tested on: Human microvascular endothelial cells (ECs); experiment: RT2 Profiler PCR array, 331 genes from 5 pathways; format: cell-based; details: esomeprazole compared to vehicle (DMSO)
Experimental: as §4
(§5) Quantitative PCR and PCR array. Total RNA was isolated from cultured cells using PerfectPure RNA Cultured Cell Kit-50 from 5 PRIME (cat #2900319, San Francisco, Calif.) according to the manufacturer's instruction. […] Quantitative PCR (qPCR) was performed using Taqman gene expression assays (Applied Biosystems, Foster City, Calif.). All genes analyzed for expression (listed in the table below) were normalized to GAPDH expression and expressed as relative fold changes using the ΔCt method of analysis. Gene expression of shelterin complex genes was quantified using SYBR™ Green Real Time PCR master mix. […] Name, catalog numbers and genes detected by the arrays are listed below.

[3] = tested on: Human microvascular endothelial cells (ECs); experiment: Lysosomal pH by pHrodo Green/Red dextran fluorescence in live ECs; format: cell-based
Experimental: as §1, §2

shelterin complex = experiment: Shelterin complex gene expression by SYBR Green RT-PCR; format: cell-based, human; details: vs vehicle
Experimental: as §4, §5

[4] = tested on: Human microvascular endothelial cells (ECs); experiment: Superoxide anion by dihydroethidium (DHE) live cell imaging; format: cell-based; details: ECs treated chronically, vs vehicle
Experimental: as §1, §3

[5] = tested on: Human microvascular endothelial cells (ECs); experiment: Total nitrate/nitrite (NOx) by Griess colorimetric assay; format: cell-based; details: ECs treated chronically, vs vehicle
Experimental: as §1, §3

[6] = poor metabolizers (about 3% of whites, 23% of Asians); cited from earlier work
[7] = tested on: Human microvascular endothelial cells (ECs); experiment: PROTEOSTAT protein aggregation assay in ECs; format: cell-based; details: ECs treated chronically, vs vehicle
Experimental: as §1, §2

[8] = tested on: N-acetyl-β-d-glucosaminidase; experiment: N-Acetyl-β-D-Glucosaminidase (NAG) activity assay, EC lysate; format: cell-based, human; details: ECs treated chronically, vs vehicle
Experimental: as §1, §2

telomerase = experiment: Telomeric repeat amplification protocol (TRAP) telomerase activity; format: cell-based, human; details: TRAP assay, esomeprazole and vehicle ECs
Experimental: Telomere length and telomerase activity. Telomere length in ECs was measured using monochrome multiplex qPCR ([…]) assay as described previously (Ramunas J, et al., Transient delivery of modified mrna encoding tert rapidly extends telomeres in human cells. FASEB journal: official publication of the Federation of American Societies for Experimental Biology. 2015; 29:1930-1939). The telomeric repeat amplification protocol (TRAP) was performed using TRAPeze® Telomerase Detection Kit (EMD Millipore Inc. cat # S7700, Darmstadt, Germany). Experiment was performed according to the manufacturer's instructions. In brief, ECs treated with esomeprazole or vehicle were collected, counted and total protein was isolated from 100,000 cells. The amount of lysate used per reaction was normalized to the amount of 1,000 cells for ECs and 500 cells for telomerase positive control (PC). In short, TRAP was performed at 30° C. for 30 minutes and resulting products were amplified in a 29 cycle PCR reaction. Heat inactivated (hi) lysate samples for each condition were used as internal negative controls.

[9] = tested on: Human microvascular endothelial cells (ECs); experiment: Quantitative PCR (Taqman) gene expression in ECs; format: cell-based; details: RT-PCR, vs vehicle
Experimental: as §4
Quantitative PCR and PCR array. Total RNA was isolated from cultured cells using PerfectPure RNA Cultured Cell Kit-50 from 5 PRIME (cat #2900319, San Francisco, Calif.) according to the manufacturer's instruction. Complementary DNA (cDNA) was prepared using gScript™ cDNA SuperMix (Quanta BioSciences, Inc. cat #95048, Beverly, Mass.). Quantitative PCR (qPCR) was performed using Taqman gene expression assays (Applied Biosystems, Foster City, Calif.). All genes analyzed for expression (listed in the table below) were normalized to GAPDH expression and expressed as relative fold changes using the ΔCt method of analysis. Gene expression of shelterin complex genes was quantified using SYBR™ Green Real Time PCR master mix. Primers for genes related to shelterin complex were obtained from Integrated DNA Technologies, Inc. (San Jose, Calif.) and are listed in the table below. RT^2 Profiler PCR Array (Qiagen, Hilden, Germany) was used to assess expression of selected genes associated with specific cellular functions following manufacturer's instructions. Name, catalog numbers and genes detected by the arrays are listed below.

[10] = tested on: Human microvascular endothelial cells (ECs); experiment: Senescence-associated β-galactosidase (SA-β-gal) staining with SYTO cell count; format: cell-based
Experimental: as §4
Senescence-associated β-galactosidase (SA-β-gal) staining. Senescence of ECs was measured using the Cellular Senescence Assay kit from Cell Biolabs, Inc. (Cat: CBA-230, San Diego, Calif.). The protocol was performed according to the manufacturer's guide. Briefly, Ecs treated continuously for 3 passages with esomeprazole or vehicle were plated in a 6 well plate. Upon confluency, cells were initially fixed and later incubated with SA-β-gal working solution for 16 hours in a non-humidified CO2 free incubator at 37° C. After incubation the cells were counter stained with SYTO® GREEN fluorescent nucleic acid stain (Life Technologies). Several random images per well were taken using light and fluorescent microscope. The SA-β-gal positive cells were counted manually and total cell number per field was quantified using NIH ImageJ software.

acid phosphatase = experiment: Acid phosphatase activity assay, EC lysate; format: cell-based, human; details: ECs treated chronically, 5 and 10 μmol/L, P4-6, vs vehicle
Experimental: as §1, §2

[11] = tested on: Human microvascular endothelial cells (ECs); experiment: Long term studies of endothelial histology (81 days after drug discontinued); format: cell-based; details: 5 or 10 μmol/L for 3 passages, then 81 days without drug, vs vehicle
Experimental: Long term studies of endothelial histology. After ECs were exposed to vehicle or ESO (5 or 10 uM) through 3 passages (P4-P6), the treatment with ESO or vehicle was discontinued when the cells reached confluency at P6. Subsequently the cells in all groups were maintained in endothelial growth medium which was routinely replaced with fresh medium every 48 hours for 81 days. Microphotographs were taken at regular intervals throughout, and on the final day of culture.

[12] = tested on: Human microvascular endothelial cells (ECs); experiment: Telomere length by monochrome multiplex qPCR (MMqPCR); format: cell-based; details: vs vehicle
Experimental: as §4
Telomere length and telomerase activity. Telomere length in ECs was measured using monochrome multiplex qPCR (MMqPCR) assay as described previously (Ramunas J, et al., Transient delivery of modified mrna encoding tert rapidly extends telomeres in human cells. FASEB journal: official publication of the Federation of American Societies for Experimental Biology. 2015; 29:1930-1939). The telomeric repeat amplification protocol (TRAP) was performed using TRAPeze® Telomerase Detection Kit (EMD Millipore Inc. cat # S7700, Darmstadt, Germany). […] In brief, ECs treated with esomeprazole or vehicle were collected, counted and total protein was isolated from 100,000 cells. […]

[13] = tested on: Human microvascular endothelial cells (ECs); experiment: BrdU cell proliferation ELISA; format: cell-based; details: chronic exposure, 3 passages, vs vehicle
Experimental: as §4

[14] = tested on: Human microvascular endothelial cells (ECs); experiment: Network formation assay on growth factor reduced matrigel (angiogenic capacity); format: cell-based; details: growth factor-depleted matrigel, vs vehicle
Experimental: as §4
Network formation assay to measure angiogenic capacity. In order to assess angiogenic capacity of ECs, growth factor reduced matrigel from BD Biosciences (cat #354230, San Jose, Calif.) was used. In brief, 24 well flat transparent plates were coated with 200 μl of matrigel/well and allowed to set at 37° C. for one hour. Subsequently, 1×10^5 cells/well were seeded and allowed to incubate for 16 hours at 37° C. Several images per well were obtained using Olympus IX51 Inverted fluorescence and bright field microscope. Network branching was quantified using NIH ImageJ software. Total length is equal to the summed length of all segments, branches and isolated branches not within the main network. […]

[15] = chronic treatment, at P6, vs vehicle

Q: What does the source list for `COc1ccc2nc([S@@+]([O-])Cc3ncc(C)c(OC)c3C)[nH]c2c1` [esomeprazole]?
A: activity of lysosomal cathepsin-B (lysosomal cathepsin B): reduced; NO generation (diamino fluorescein 2-diacetate staining) [1]: less; plasminogen activator inhibitor (PAI-1) protein expression (PAI-1): upregulated; Expression of genes (PCR array) strongly up-regulated, Table 4 gene list ([2]; 52 genes listed AGTR1 to ZEB2): Expressin of genes (PCR array) that are strongly up-regulated (>2 fold) upon; Expression of genes (PCR array) strongly up regulated, Table 5 gene list ([2]; genes listed ACE to VWF): Expression of genes (PCR array) that are strongly up regulated (>2 fold) upon; fluorescence intensity of pH-sensitive dye (pHrodo Green), inversely related to lysosomal pH ([3]; ECs, esomeprazole 5 and 10 μmol/L, 3 passages (P4-6), vs vehicle (DMSO)): significantly reduced; pHrodo red fluorescence (lysosomal distribution) ([3]; second pH-sensitive dye, ESO treated vs vehicle treated ECs): reduced; also recorded: qualitatively similar findings; expression of all 6 genes of the shelterin complex (TRF1, TRF2, POT1, RAP1, TIN2, TPP1) (shelterin complex): global downregulation; superoxide anion (dihydroethidium) [4]: more; total nitrate levels (Griess) [5]: decrease; increase in plasma concentration in CYP2C19 poor metabolizers [6]: 3 fold; protein aggregates [7]: increase; N-acetyl-β-d-glucosaminidase activity [8]: does not impair; also recorded: No difference; telomerase expression or activity (telomerase): neither group of ECs manifested telomerase expression or activity; expression of COL1A1 ([9]; EndoMT gene): upregulated; expression of SMAD3 ([9]; EndoMT gene): upregulated; expression of TWIST1 ([9]; EndoMT gene): upregulated; expression of DDAH1/2 ([9]; normalized to GAPDH): decrease; expression of eNOS ([9]; normalized to GAPDH): decrease; expression of iNOS ([9]; normalized to GAPDH): decrease; expression of von Willebrand factor [9]: decline; plasminogen activator inhibitor (PAI-1) message expression [9]: upregulated; expression of cell cycle inhibitor p21 gene ([9]; chronic treatment): increased; endothelial senescence / aging (overall finding) ([10]; chronic exposure of human ECs): accelerated; SA-β-gal-positive cells [10, 15]: increased; total cell count per microscopic field (SYTO-green staining) [10, 15]: decrease; activity of acid phosphatase (acid phosphatase): reduced; histology at the 3-month time point (cell loss, EndoMT) [11]: acceleration of EndoMT; also recorded: some cell loss or EndoMT; telomere length [12]: significant decrease; cell proliferation (5-bromo-2′-deoxyuridine assay) [13]: dose-dependently impaired; angiogenic capacity of ECs (network formation) [14]: impaired
